# In paper PMC7803973, “Structural basis of malaria parasite phenylalanine tRNA-synthetase inhibition by bicyclic azetidines” (Nature Communications, 2021):
# Where “and” joins values, the source holds several entries; their conditions need not be identical. Identical values can stand only once.
# What was measured:
# PfcFRS mutant (L550V) = PfcFRS mutant (L550V) (Plasmodium falciparum, UniProt Q8I246, L550V); experiment: Malachite green aminoacylation enzyme inhibition assay; assay type: biochemical
# Procedure: (§1) These were done using malachite green assay as per earlier published reports[1],[6]. Briefly, the reaction was performed for 100 µM ATP, 50 µM L-phenylalanine and 100 nM recombinant PheRS enzymes (Pf, Pv, Hs, Pf mutant (L550V)) in a buffer containing 30 mM HEPES (pH 7.5), 150 mM, NaCl, 30 mM KCl, 50 mM, MgCl2, 1 mM DTT, and 2 U/ml E. coli inorganic pyrophosphatase (NEB) at 37 °C. Enzymatic reactions (50 μl total volume) were performed in clear, flat-bottomed, 96-well plates (Costar 96-well standard microplates). The reaction mixture was incubated for 2 h at 37 °C. The reaction was stopped by adding 12.5 μl of malachite green solution to the reaction mixture and levels of inorganic phosphate (Pi) were detected after incubation of 5 min at room temperature. Absorbance was the measured at 620 nm using a Spectramax M2 (Molecular Devices). Reactions without FRS enzyme were performed as background controls, values of which were subtracted from the reactions with enzyme. BRD1389 was added to our aminoacylation assay reaction buffer in varying concentrations ranging from 0.1 nM to 10,000 nM. The IC50 value for the data is shown for three replicates as the mean ± SD.
# PvcFRS [1] = biological target: T1, PvcFRS (Plasmodium vivax, UniProt A5K9S0); experiment: as above; assay type: biochemical
# T1 construct: Full-length PvcFRS was also purified according to the same protocol; vector-encoded tag of pETM11 (own knowledge: N-terminal His6 with TEV site); Ni-NTA purification; made in house; host or cells: E. coli strain B834
# Procedure: as §1
# PvcFRS [2] = biological target: T1, PvcFRS; experiment: Incubation of PvcFRS with BRD1389 and ATP analogue AMPPNP; assay type: binding; details: PvcFRS with high concentrations of both BRD1389 and AMPPNP
# Source text: The diarylacetylene moiety of BRD1389 that occupies the L-Phe site is recognized via a bed of β-strand residues Ala541-Trp542-Gly543-Leu544 (Fig. 3b), while its edge phenyl ring is covered by Tyr497 where it provides an aromatic T-shaped π…π interaction at a distance of ~4.2 Å (Fig. 3b). In addition, the diarylacetylene moiety is surrounded by hydrophobic elements of Asn519, Gln457, and Glu459 (Fig. 3b). The urea moiety of BRD1389 is buried in a groove that is composed of Gly506, His508, Glu510, Lys512–513, Leu515, Ile552 and Pro549 (Figs. 3b, e and 4c). The urea/groove interactions are mainly stabilized by hydrophobic contacts, particularly from Pro549 and His508 while residues Val517, Ile483 and Pro549 provide sandwich support to the cyclopropoxy moiety (Figs. 3b and 4c). The urea component of BRD1389 forms hydrogen bonding interactions with main-chain N-atom of Ser545 (Fig. 3a, b). The above sets of extensive interactions position BRD1389 in an ‘L’ shaped conformation wherein its methoxy methyl group is surrounded by socket residues Arg443, Glu445, His451, and Phe455. […] This similarity highlights the importance of the three-dimensional shape and rigidity of the diazabicyclodecane scaffold in pre-orienting the molecular appendages for optimal target engagement. […]
# [3] = system: Plasmodium falciparum strain 3D7; experiment: Parasite growth inhibition (drug susceptibility test, pLDH readout); assay type: cell-based
# Procedure: The cultivation of P. falciparum was conducted according to Trager’s method with some modification. Precisely, parasites were kept in culture flasks with RPMI1640 medium supplemented with 10% human plasma and 2% fresh human erythrocytes and incubated at 37 °C with the gas condition of 5% CO2 and 5% O2. The parasitemia (percentage of infected erythrocytes to total erythrocytes) were kept within 0.25–10%. Culture medium was replaced, and fresh erythrocytes were supplied every 2–3 days. Drug susceptibility test was conducted according to Desjardins’s method[18] with some modification. […] […] The plates were kept at 37 °C with the gas condition of 5% CO2 and 5% O2 for 72 h and then parasite growth was quantified with Makler’s method to detect plasmdoial lactate dehydrogenase[19] with some modification. Precisely, culture plates were kept in freezer overnight and then thawed at 37 °C to disrupt the erythrocytes and parasite cells. In the new 96-well titer plates, 100 μl of enzyme reaction solution (110 mM Li-lactate, 0.5 mM acetylpyridine-adenine dinucleotide, 50 mM Tris (pH 7.5), 10 mM EDTA, 50 mM KCl, and 15 g l^−1 PEG6000) and 20 µl of freeze-thaw culture were mixed in each well and then kept at room temperature for 30 min. The detection solution was prepared by mixing equal volume of 2 mg ml^−1 nitro blue tetrazolium and 0.1 mg ml^−1 phenazine ethosulfate and 20 µl of the solution was added to each well.
# [4] = 2 h, read-out: % Enzyme Activity
# T1 sequence (A5K464 whole entry): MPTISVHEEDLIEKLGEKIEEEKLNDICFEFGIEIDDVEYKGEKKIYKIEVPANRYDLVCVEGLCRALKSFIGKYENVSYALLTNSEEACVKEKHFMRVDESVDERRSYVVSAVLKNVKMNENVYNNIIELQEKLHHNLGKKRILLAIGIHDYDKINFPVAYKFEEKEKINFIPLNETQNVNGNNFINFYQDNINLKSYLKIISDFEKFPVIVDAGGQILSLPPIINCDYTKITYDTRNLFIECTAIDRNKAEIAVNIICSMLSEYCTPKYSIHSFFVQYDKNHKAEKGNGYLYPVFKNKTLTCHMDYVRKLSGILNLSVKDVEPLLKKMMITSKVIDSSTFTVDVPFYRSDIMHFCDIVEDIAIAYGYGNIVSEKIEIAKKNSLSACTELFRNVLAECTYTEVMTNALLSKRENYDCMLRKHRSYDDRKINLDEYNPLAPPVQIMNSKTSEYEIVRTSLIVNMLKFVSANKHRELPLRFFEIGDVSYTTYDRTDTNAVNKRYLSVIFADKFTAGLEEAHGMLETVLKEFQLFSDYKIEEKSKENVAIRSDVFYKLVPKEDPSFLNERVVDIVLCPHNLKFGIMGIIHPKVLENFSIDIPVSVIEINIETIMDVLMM
# T1 sequence (A5K9S0 whole entry): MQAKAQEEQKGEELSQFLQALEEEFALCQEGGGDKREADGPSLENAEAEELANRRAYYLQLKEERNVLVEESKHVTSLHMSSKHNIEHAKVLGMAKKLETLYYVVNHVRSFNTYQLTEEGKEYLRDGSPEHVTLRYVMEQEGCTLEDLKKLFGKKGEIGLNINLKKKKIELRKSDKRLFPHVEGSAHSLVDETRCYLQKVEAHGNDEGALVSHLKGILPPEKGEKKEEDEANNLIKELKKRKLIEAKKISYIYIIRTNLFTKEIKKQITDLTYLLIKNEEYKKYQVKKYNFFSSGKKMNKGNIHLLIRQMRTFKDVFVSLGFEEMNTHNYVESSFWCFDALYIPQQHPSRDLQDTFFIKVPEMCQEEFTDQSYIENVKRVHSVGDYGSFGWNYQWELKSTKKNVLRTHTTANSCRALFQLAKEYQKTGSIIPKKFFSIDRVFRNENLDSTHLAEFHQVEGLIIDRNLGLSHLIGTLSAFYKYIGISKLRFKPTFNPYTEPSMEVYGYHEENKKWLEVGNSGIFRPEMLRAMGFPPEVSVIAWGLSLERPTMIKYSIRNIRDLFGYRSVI
# Chain of PfcFRS mutant (L550V) (Q8IIW2 whole entry, stated change not applied): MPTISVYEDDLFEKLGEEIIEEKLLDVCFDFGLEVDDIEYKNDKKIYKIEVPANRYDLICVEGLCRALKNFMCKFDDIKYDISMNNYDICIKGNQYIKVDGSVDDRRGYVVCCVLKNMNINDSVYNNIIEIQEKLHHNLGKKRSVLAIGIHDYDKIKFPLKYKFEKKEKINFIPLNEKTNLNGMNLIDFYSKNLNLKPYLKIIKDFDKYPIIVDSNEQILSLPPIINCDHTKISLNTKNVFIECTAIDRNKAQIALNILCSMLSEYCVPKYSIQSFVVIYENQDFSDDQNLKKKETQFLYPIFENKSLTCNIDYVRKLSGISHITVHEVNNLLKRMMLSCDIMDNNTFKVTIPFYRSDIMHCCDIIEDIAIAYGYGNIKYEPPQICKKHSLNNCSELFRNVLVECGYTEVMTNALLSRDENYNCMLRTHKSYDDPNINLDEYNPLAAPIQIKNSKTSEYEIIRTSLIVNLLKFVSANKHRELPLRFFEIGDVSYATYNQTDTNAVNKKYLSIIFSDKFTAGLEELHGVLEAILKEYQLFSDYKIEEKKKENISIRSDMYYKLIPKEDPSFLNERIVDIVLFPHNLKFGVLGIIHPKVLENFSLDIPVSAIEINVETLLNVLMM
# Chain of PfcFRS mutant (L550V) (Q8I246 whole entry, stated change not applied): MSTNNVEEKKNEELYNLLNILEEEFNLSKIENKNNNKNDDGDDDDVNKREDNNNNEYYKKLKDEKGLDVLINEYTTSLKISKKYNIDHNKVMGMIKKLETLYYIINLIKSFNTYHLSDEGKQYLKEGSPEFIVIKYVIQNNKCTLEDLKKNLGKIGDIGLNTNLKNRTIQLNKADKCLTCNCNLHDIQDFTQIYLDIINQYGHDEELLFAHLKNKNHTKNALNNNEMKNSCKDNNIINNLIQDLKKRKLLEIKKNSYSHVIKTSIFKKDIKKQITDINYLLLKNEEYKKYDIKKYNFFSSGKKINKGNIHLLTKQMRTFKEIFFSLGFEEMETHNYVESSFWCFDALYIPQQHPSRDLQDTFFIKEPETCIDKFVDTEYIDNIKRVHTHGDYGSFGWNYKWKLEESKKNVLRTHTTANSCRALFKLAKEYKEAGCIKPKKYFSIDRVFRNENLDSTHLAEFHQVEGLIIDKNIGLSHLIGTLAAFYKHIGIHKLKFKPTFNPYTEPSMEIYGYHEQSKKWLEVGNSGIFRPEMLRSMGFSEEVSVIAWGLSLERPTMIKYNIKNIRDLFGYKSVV
structure (smiles),measurement,setting,value
COC[C@@H]1[C@H](c2ccc(C#Cc3ccccc3)cc2)[C@@H]2CN(C(=O)Nc3ccc(OC4CC4)cc3)C[C@@H](O)[C@@H](O)CN12 [BRD1389],IC50,PfcFRS mutant (L550V),1 µM
same,remaining activity at 1 pM,PfcFRS mutant (L550V); [4],100%
same,remaining activity at 0.0001 µM,PfcFRS mutant (L550V); [4],99.5%
same,remaining activity at 0.001 µM,PfcFRS mutant (L550V); [4],98%
same,remaining activity at 0.01 µM,PfcFRS mutant (L550V); [4],95.2%
same,remaining activity at 0.1 µM,PfcFRS mutant (L550V); [4],75.4%
same,remaining activity at 1 µM,PfcFRS mutant (L550V); [4],55.3%
same,remaining activity at 10 µM,PfcFRS mutant (L550V); [4],18.8%
same,remaining activity at 100 µM,PfcFRS mutant (L550V); [4],0%
same,remaining activity at 1 pM,PvcFRS [1]; [4],100%
same,IC50,PvcFRS [1]; Pv cFRS aminoacylation activity,0.025 ± 0.001 µM
same,remaining activity at 0.0001 µM,"PvcFRS [1]; PvcFRS, BRD1389 0.0001 uM",95.4%
same,remaining activity at 0.001 µM,"PvcFRS [1]; PvcFRS, BRD1389 0.001 uM",86.2%
same,remaining activity at 0.01 µM,"PvcFRS [1]; PvcFRS, BRD1389 0.01 uM",60.7%
same,remaining activity at 0.1 µM,"PvcFRS [1]; PvcFRS, BRD1389 0.1 uM",20.7%
same,remaining activity at 1 µM,"PvcFRS [1]; PvcFRS, BRD1389 1 uM",8.61%
same,remaining activity at 10 µM,"PvcFRS [1]; PvcFRS, BRD1389 10 uM",2.17%
same,remaining activity at 100 µM,"PvcFRS [1]; PvcFRS, BRD1389 100 uM",0%
same,Binding observed on co-incubation,PvcFRS [2],observed only binding of BRD1389
same,% Parasite Growth,"[3]; 3D7, 0.000976562 ug/mL",93.5%
same,% Parasite Growth,"[3]; 3D7, 0.00195312 ug/mL",94.1%
same,% Parasite Growth,"[3]; 3D7, 0.00390625 ug/mL",94.0%
same,% Parasite Growth,"[3]; 3D7, 0.0078125 ug/mL",47.5%
same,% Parasite Growth,"[3]; 3D7, 0.015625 ug/mL",14.7%
same,% Parasite Growth,"[3]; 3D7, 0.03125 ug/mL",8.9%
same,% Parasite Growth,"[3]; 3D7, 0.0625 ug/mL",2.0%
same,% Parasite Growth,"[3]; 3D7, 0.125 ug/mL",1.8%
same,% Parasite Growth,"[3]; 3D7, 0.25 ug/mL",1.5%
same,% Parasite Growth,"[3]; 3D7, 0.5 ug/mL",1.7%
same,% Parasite Growth,"[3]; 3D7, 1 ug/mL",2.2%
same,IC50,"[3]; Plasmodium falciparum, 3D7",0.00753 µg/mL and 13.3 nM
same,EC50,"[3]; Plasmodium falciparum, 3D7, 72 h",0.013 µM
